This passage reports Ki results from patent publication US10065970B2 (Genentech, Inc., priority 2015, dated 2018).

In the test the target is PI3Kα (alpha) (Homo sapiens (Human), UniProt P42336). The test can be described thus: p110α (alpha) PI3K Binding Assay (ADP-Glo lipid kinase reaction). Conditions: read-out: PI3Kα-(alpha) ATP (Ki) micromolar. In kind it is biochemical. On the procedure:
The ability of a compound of the invention to act as an inhibitor of PI3Kα was determined using the methods of Example 901.
PI3K Binding assays are intended for determining the biochemical potency of small molecule PI3K inhibitors. The PI3K lipid kinase reaction is performed in the presence of PIP2:3PS lipid substrate (Promega #V1792) and ATP. Following the termination if the kinase reaction, turnover of ATP to ADP by the phosphorylation of the lipid substrate is detected using the Promega ADP-Glo™ (Promega #V1792) assay. Reactions are carried out using the following conditions:
After 120 minutes of reaction time, the kinase reaction is terminated. Any ATP remaining after the reaction is depleted, leaving only ADP. Then the Kinase Detection Reagent is added to convert ADP to ATP, which is used in a coupled luciferin/luciferase reaction. The luminescent output is measured and is correlated with kinase activity.
All reactions are carried out at room temperature. A 3 μl mixture (1:1) of enzyme/lipid substrate solution is added to a 384 well white assay plate (Perkin Elmer #6007299) containing 50 nl of test compound or DMSO only for untreated controls. The reaction is started by the addition of 2 μl ATP/MgCl2. The kinase reaction buffer contains 50 mM HEPES, 50 mM NaCl, 3 mM MgCl2, 0.01% BSA, 1% DMSO, and enzyme and substrate concentrations as indicated in the above table. The reaction is stopped by the addition of 10 μL ADP-Glo reagent. Plates are read in a Perkin Elmer Envision system using luminescence mode. 10 point dose response curves are generated for each test compound. Ki values for each compound are determined using the Morrison Equation.

Setting [1] is: PI3K alpha 0.2 nM, ATP 40 μM, PIP2:3PS 50 μM, 120 min, room temperature, Ki by Morrison Equation.

Read-outs that look alike come from different tables or passages of the source. Some results are limits rather than exact numbers.

Sequence of PI3Kα (alpha) (P42336 whole entry): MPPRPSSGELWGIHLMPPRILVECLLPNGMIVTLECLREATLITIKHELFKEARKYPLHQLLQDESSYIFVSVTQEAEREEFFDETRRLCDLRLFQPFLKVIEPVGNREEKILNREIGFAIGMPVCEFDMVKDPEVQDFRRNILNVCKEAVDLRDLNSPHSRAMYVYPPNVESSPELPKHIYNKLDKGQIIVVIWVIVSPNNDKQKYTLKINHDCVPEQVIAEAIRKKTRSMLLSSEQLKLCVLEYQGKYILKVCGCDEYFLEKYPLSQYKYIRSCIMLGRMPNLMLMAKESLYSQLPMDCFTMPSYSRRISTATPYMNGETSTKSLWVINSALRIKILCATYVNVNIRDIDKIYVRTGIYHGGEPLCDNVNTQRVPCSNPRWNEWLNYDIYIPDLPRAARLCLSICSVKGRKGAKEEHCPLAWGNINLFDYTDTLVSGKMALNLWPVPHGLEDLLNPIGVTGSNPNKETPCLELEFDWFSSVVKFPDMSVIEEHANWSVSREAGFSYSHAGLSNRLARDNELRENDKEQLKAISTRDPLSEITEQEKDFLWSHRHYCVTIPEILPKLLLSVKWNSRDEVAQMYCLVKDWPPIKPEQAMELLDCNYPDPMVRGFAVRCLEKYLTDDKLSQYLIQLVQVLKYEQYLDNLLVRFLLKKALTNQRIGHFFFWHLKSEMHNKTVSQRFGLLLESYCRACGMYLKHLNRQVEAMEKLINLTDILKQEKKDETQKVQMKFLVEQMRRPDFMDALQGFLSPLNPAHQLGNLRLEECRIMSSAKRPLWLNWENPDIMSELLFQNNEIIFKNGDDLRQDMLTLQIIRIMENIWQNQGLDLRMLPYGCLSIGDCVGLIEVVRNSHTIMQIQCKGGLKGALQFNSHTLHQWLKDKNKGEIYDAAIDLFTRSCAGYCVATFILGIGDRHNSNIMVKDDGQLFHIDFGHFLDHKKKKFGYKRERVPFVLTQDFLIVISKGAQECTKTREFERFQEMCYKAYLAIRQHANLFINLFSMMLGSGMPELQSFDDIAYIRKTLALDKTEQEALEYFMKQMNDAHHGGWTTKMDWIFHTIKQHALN
Sequence of PI3Kα (alpha) (P27986 whole entry partner): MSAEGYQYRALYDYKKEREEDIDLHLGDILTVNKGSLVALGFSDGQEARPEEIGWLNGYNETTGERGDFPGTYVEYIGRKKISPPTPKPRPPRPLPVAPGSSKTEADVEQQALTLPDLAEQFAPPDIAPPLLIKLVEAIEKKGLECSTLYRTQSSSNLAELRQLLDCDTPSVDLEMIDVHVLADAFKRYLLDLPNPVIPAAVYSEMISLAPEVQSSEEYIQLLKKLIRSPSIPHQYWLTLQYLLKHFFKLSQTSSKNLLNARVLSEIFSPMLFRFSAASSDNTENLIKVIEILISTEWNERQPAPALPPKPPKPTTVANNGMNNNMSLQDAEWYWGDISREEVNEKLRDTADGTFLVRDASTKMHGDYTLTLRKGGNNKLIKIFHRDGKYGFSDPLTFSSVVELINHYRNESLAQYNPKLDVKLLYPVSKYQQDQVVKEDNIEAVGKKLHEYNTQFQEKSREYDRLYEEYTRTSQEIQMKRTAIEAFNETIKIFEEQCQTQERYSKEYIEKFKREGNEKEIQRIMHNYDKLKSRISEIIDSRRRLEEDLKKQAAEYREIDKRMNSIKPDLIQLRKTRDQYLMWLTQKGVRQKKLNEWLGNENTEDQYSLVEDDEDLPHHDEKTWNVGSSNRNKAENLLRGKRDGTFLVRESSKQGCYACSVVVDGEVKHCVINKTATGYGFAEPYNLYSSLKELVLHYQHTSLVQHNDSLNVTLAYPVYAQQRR

In the case of `NC(=O)[C@@H](Nc1cc2c3c(c1)nc(-c1ccc4[nH]ncc4c1)n3CCCO2)C1CC1` [Example 133, (S)-2-((1-(1H-Indazol-5-yl)-8,9-dihydro-7H-6-oxa-2,9a-diazabenzo[cd]azulen-4-yl)amino)-2-cyclopropylacetamide], the Ki under setting [1] was found to be 43.4 nM.
The same measure, in the same setting: the same measure for `NC(=O)[C@@H](Nc1cc2c3c(c1)nc(-c1ccnc4c1OCO4)n3CCCO2)C1CC1` [Example 195, (S)-2-((1-([1,3]Dioxolo[4,5-b]pyridin-7-yl)-8,9-dihydro-7H-6-oxa-2,9a-diazabenzo[cd]azulen-4-yl)amino)-2-cyclopropylacetamide]: 194 nM; for `NC(=O)[C@@H](C1CC1)n1cc(-c2cc3c4c(c2)nc(-c2ccc5oc(N)nc5c2)n4CCCO3)cn1` (single isomer, unassigned) [Example 231]: 0.437 nM; for `C[C@H](Oc1cc2c3c(c1)nc(-c1cc(F)c4oc(N)nc4c1)n3CCCO2)C(N)=O` [Example 258, (S)-2-((1-(2-Amino-7-fluorobenzo[d]oxazol-5-yl)-8,9-dihydro-7H-6-oxa-2,9a-diazabenzo[cd]azulen-4-yl)oxy)propanamide]: 0.09 nM.
The same measure, in the same setting: then `CS(=O)(=O)c1cncc(-c2nc3cc(N[C@H](C(N)=O)C4CC4)cc4c3n2CCCO4)c1` [Example 175, (S)-2-Cyclopropyl-2-((1-(5-(methylsulfonyl)pyridin-3-yl)-8,9-dihydro-7H-6-oxa-2,9a-diazabenzo[cd]azulen-4-yl)amino)acetamide], with 26 nM; and `C[C@H](Oc1cc2c3c(c1)nc(-c1ccc4sc(N)nc4c1)n3CCCCO2)C(N)=O` (single isomer, unassigned) [Example 276], with 0.113 nM.
In the case of `CC[C@H](Oc1cc2c3c(c1)nc(-c1cc(F)c4nc(N)sc4c1)n3CCCCO2)C(N)=O` [Example 273, (S)-2-((1-(2-Amino-4-fluorobenzo[d]thiazol-6-yl)-7,8,9,10-tetrahydro-6-oxa-2,10a-diazacycloocta[cd]inden-4-yl)oxy)butanamide], the Ki under setting [1] turned out to be 0.0494 nM.
For `COC[C@@H](Oc1cc2c3c(c1)nc(-c1ccc4nc(N)sc4n1)n3CCCCO2)C(N)=O` (single isomer, unassigned) [Example 314], the Ki under setting [1] is 0.737 nM.
With `C[C@@H](Oc1cc2c3c(c1)nc(-c1ccc4oc(N)nc4c1)n3CCCCO2)C(N)=O` [Example 245, (R)-2-((1-(2-Aminobenzo[d]oxazol-5-yl)-7,8,9,10-tetrahydro-6-oxa-2,10a-diazacycloocta[cd]inden-4-yl)oxy)propanamide], under setting [1], the Ki worked out at 0.032 nM.
As for `NC(=O)[C@@H]1CCCN1c1cc2c3c(nc(-c4ccc5oc(N)nc5c4)n3CCCCO2)c1F` [Example 247, (S)-1-(1-(2-Aminobenzo[d]oxazol-5-yl)-3-fluoro-7,8,9,10-tetrahydro-6-oxa-2,10a-diazacycloocta[cd]inden-4-yl)pyrrolidine-2-carboxamide], the Ki is 0.024 nM.
Consider `NC(=O)c1ccc(-c2nc3cc(N[C@H](C(N)=O)C4CC4)cc4c3n2CCCO4)cn1` [Example 191, (S)-5-(4-((2-Amino-1-cyclopropyl-2-oxoethyl)amino)-8,9-dihydro-7H-6-oxa-2,9a-diazabenzo[cd]azulen-1-yl)picolinamide], for which the Ki under setting [1] was determined as 105 nM.
Consider `Cc1ccncc1-c1nc2cc(N[C@H](C(N)=O)C3CC3)cc3c2n1CCCO3` [Example 122, (S)-2-Cyclopropyl-2-((1-(4-methylpyridin-3-yl)-8,9-dihydro-7H-6-oxa-2,9a-diazabenzo[cd]azulen-4-yl)amino)acetamide], for which the Ki under setting [1] worked out at 296 nM.
Same read-out and setting: the same measure for `C[C@H](Oc1cc2c3c(c1)nc(-c1ccc4oc(N)nc4c1)n3CCCO2)C(N)=O` [Example 162, (S)-2-((1-(2-Aminobenzo[d]oxazol-5-yl)-8,9-dihydro-7H-6-oxa-2,9a-diazabenzo [cd]azulen-4-yl)oxy)propanamide]: 0.201 nM; for `C[C@H](Nc1cc2c3c(c1)nc(N1CCC(CO)CC1)n3CCCO2)C(N)=O` [Example 140, (S)-2-[1-(4-Hydroxymethylpiperidin-1-yl)-8,9-dihydro-7H-6-oxa-2,9a-diazabenzo[cd]azulen-4-ylamino]propionamide]: 681 nM.
On the same count and under the same terms, the same measure for `NC(=O)[C@@H](Nc1cc2c3c(c1)nc(-c1ccn4nccc4n1)n3CCCO2)C1CC1` [Example 228, (S)-2-Cyclopropyl-2-((1-(pyrazolo[1,5-a]pyrimidin-5-yl)-8,9-dihydro-7H-6-oxa-2,9a-diazabenzo[cd]azulen-4-yl)amino)acetamide]: 2.66 nM; for `Nc1nc2cc(-c3nc4cc(-c5cnn(CCO)c5)cc5c4n3CCCO5)ccc2o1` [Example 152, 2-(4-(1-(2-Aminobenzo[d]oxazol-5-yl)-8,9-dihydro-7H-6-oxa-2,9a-diazabenzo[cd]azulen-4-yl)-1H-pyrazol-1-yl)ethanol]: 0.638 nM.
Same read-out and setting: the same measure for `C[C@H](Oc1cc2c3c(c1)nc(-c1cc(F)c4oc(N)nc4c1F)n3CCCCO2)C(N)=O` [Example 261, (S)-2-((1-(2-Amino-4,7-difluorobenzo[d]oxazol-5-yl)-7,8,9,10-tetrahydro-6-oxa-2,10a-diazacycloocta[cd]inden-4-yl)oxy)propanamide]: less than 0.02 nM; for `C[C@H](Nc1cc2c3c(c1)nc(-c1ccc(C#N)cn1)n3CCCO2)C(N)=O` [Example 110, (S)-2-((1-(5-Cyanopyridin-2-yl)-8,9-dihydro-7H-6-oxa-2,9a-diazabenzo[cd]azulen-4-yl)amino)propanamide]: 261 nM; for `CC(C)(C(N)=O)n1cc(-c2cc3c4c(c2)nc(-c2ccc5oc(N)nc5c2)n4CCCO3)cn1` [Example 124, 2-(4-(1-(2-Aminobenzo[d]oxazol-5-yl)-8,9-dihydro-7H-6-oxa-2,9a-diazabenzo[cd]azulen-4-yl)-1H-pyrazol-1-yl)-2-methylpropanamide]: 0.117 nM.
On to `NC(=O)[C@H](C1CC1)n1cc(-c2cc3c4c(c2)nc(-c2ccc5oc(N)nc5c2)n4CCCO3)cn1` (single isomer, unassigned) [Example 230], for which the Ki under setting [1] came to 0.309 nM.
As for `Cn1nc(-c2nc3cc(N[C@H](C(N)=O)C4CC4)cc4c3n2CCCO4)ccc1=O` [Example 129, (S)-2-Cyclopropyl-2-((1-(1-methyl-6-oxo-1,6-dihydropyridazin-3-yl)-8,9-dihydro-7H-6-oxa-2,9a-diazabenzo[cd]azulen-4-yl)amino)acetamide], under setting [1], the Ki was determined as 257 nM.
Take `COC(=O)c1cc(-c2nc3cc(N[C@H](C(N)=O)C4CC4)cc4c3n2CCCO4)ccc1OC` [Example 158, (S)-Methyl 5-(4-((2-amino-1-cyclopropyl-2-oxoethyl)amino)-8,9-dihydro-7H-6-oxa-2,9a-diazabenzo[cd]azulen-1-yl)-2-methoxybenzoate]: under setting [1], the Ki came out at 206 nM.
Take `NC(=O)[C@@H]1CCCN1c1cc2c3c(c1)nc(-c1ccc(-c4nc[nH]n4)cn1)n3CCCO2` [Example 226, (S)-1-(1-(5-(1H-1,2,4-Triazol-3-yl)pyridin-2-yl)-8,9-dihydro-7H-6-oxa-2,9a-diazabenzo[cd]azulen-4-yl)pyrrolidine-2-carb oxamide]: the Ki under setting [1] came to 0.393 nM.
The same measure, in the same setting: the same measure for `CC[C@@H](C(N)=O)n1cc(-c2cc3c4c(c2)nc(-c2ccc5oc(N)nc5n2)n4CCCCO3)cn1` (single isomer, unassigned) [Example 301]: 0.038 nM.

Usually Ki stands for the equilibrium dissociation constant of an inhibitor or competing ligand from its target.
